In patent publication EP0705258B1, “AZOLYL-CYCLIC AMINE DERIVATIVES WITH IMMUNOMODULATORY ACTIVITY” (Knoll AG, priority 1993, dated 1995):
pIC50: −log10 of the molar value.

What follows are compounds tested on lymphocyte proliferation (BALB/c responder and mitomycin C treated C57BL/6 stimulator spleen cells) (assay: Mixed Lymphocyte Reaction (Test A), one-way MLR, tritiated thymidine incorporation). Details: Mus musculus; concentration causing 50% inhibition of lymphocyte proliferation, by linear interpolation; ≤ = active at this concentration but not tested at lower doses.
Assay type: cell-based, mice
Method: A mixed lymphocyte reaction (MLR) occurs when lymphocytes from two genetically dissimilar individuals, or inbred strains of mice are cultured together. An MLR results in the activation and proliferation of lymphocytes, which is measured by the incorporation of radiolabelled thymidine into the cellular DNA synthesised during cell division. A 'one-way' MLR is used to determine the immunosuppressive activity of test compounds in vitro. In this reaction one population of spleen cells serves as the stimulator cells and is treated with mitomycin C to prevent cell division. Spleen cells from a second allogeneic population (responder cells) are untreated and when mixed with the stimulator cells are able to undergo division which is measured. The degree of proliferation is measured in the presence and absence of test compound to assess the immunosuppressive activity of the compound.
The techniques for carrying out lymphocyte proliferation assays including MLRs are well known, eg Bradley, pages 156-166, in Mishell and Shiigi, Eds. Selected Methods in Cellular Immunology (Freeman, San Francisco, 1980); and Battisto et al, methods in Enzymology 1987; 150: 83-91. Various slight modifications of these techniques are in use and that used herein is described in Gibb, Webber and Bowen, J Immunological Methods 1985; 81: 107-113.
Cell suspensions obtained from the spleens of female BALB/c and C57BL/6 strain mice of between 6 and 9 weeks of age were used as sources of responder and stimulator cells respectively. The mice were killed using a rising concentration of CO2 and the spleens removed aseptically and teased using a scalpel and forceps to produce a single cell suspension in Hanks balanced salt solution (HBSS). The suspensions were filtered through cell strainers (Falcon), sedimented by centrifugation and resuspended in Tris-buffered ammonium chloride pH 7.2 (medium D) to lyse the erythrocytes. The cells were sedimented again and washed twice in HBSS before resuspending in complete RPMI 1640 tissue culture medium (medium E). The C57BL/6 cells were resuspended to 9 mls per spleen and a solution of mitomycin C at 400 µg/ml in medium E added to give a final concentration of 40 µg/ml. After incubation of the C57BL/6 cells at 37°C for 30 minutes in an atmosphere of 5% CO2 and 95% air, the cells were sedimented and washed 3 times in medium E. Both cell suspensions were diluted in medium E to 5 x 10^6 cells/ml. 100µl of each of the responder and stimulator cell suspensions were aliquoted into the wells of 96 well flat bottom microtitre plates containing 50 µl of test compound at an appropriate dilution (initially 50 µM diluted in medium E from a stock solution at 100 mM in dimethyl sulphoxide) giving a final test compound concentration of 10 µM (final dilution). Compounds active at this concentration were tested at further final dilution of 1 µM, 0.1 µM and 0.01 µM and 0.001 µM to determine the concentration of test compound which causes 50% inhibition of the immune response (IC50). After four days of culture at 37°C in a humidified atmosphere of 5% CO2 and 95% air, 1 µCi of tritiated thymidine in 20 µl of medium E was added to each well and the plates incubated for a further 24 hours. Cells were then harvested onto Inotech G7 glass fibre filter mats using an Inotech cell harvester. The filters were transferred to vials to which 2 ml of Packard Emulsifier-Safe scintillation fluid was added and the radioactivity from the incorporated thymidine was counted in a Packard liquid scintillation counter. The counts per minute (CPM) reflect the degree of lymphocyte proliferation. The data were analysed to determine the percentage inhibition of lymphocyte proliferation by the test compound. […]

| Compound | pIC50 |
| --- | --- |
| c1ccc(OCCN2CCC(CCn3ccnc3)CC2)cc1 [Example 87, 4-[2-(Imidazol-1-yl)ethyl]-1-(2-phenoxyethyl)piperidine] | 5.10 |
| C(=Cc1ccccc1)CN1CCC(CCn2ccnc2)CC1 [Example 90, 1-Cinnamyl-4-[2-(imidazol-1-yl)ethyl]-piperidine] | 5.66 |
| O=C(CN1CCC(CCn2ccnc2)CC1)Nc1ccc(C(F)(F)F)cc1 [Example 91, 4-[2-(Imidazol-1-yl)ethyl]piperidino-4'-trifluoromethylacetanilide] | 7.00 |
| CC(c1ccc(Cl)cc1)N1CCC(CCn2ccnc2)CC1 (stereo not shown) [Example 93, 1-[1-(4-chlorophenyl)ethyl]-4-[2-(imidazol-1-yl)-ethyl]piperidine] | 5.96 |
| Cl.Cl.c1ccc(CCCN2CCC(CCn3ccnc3)CC2)cc1 [Example 98, 4-[2-(imidazol-1-yl)ethyl]-1-(3-phenylpropyl)piperidine dihydrochloride] | 6.52 |
| c1ccc(CCCN2CCC(Cn3ccnc3)CC2)cc1 [Example 102, 4-Imidazol-1-ylmethyl-1-(3-phenylpropyl)piperidine] | 5.28 |
| CC1CN(CCCc2ccccc2)CCC1CCn1ccnc1 (stereo not shown) [Example 103, 4-[2-(Imidazol-1-yl)ethyl]-3-methyl-1-(3-phenylpropyl)piperidine] | 5.72 |
| c1ccc(CCCN2CCC(CCn3ccnc3-c3ccccc3)CC2)cc1 [Example 109, 4-[2-(2-Phenylimidazol-1-yl)ethyl]-1-(3-phenylpropyl)piperidine] | 5.44 |
| Cc1nc2ccccc2n1CCC1CCN(CCCc2ccccc2)CC1 [Example 112, 2-Methyl-1-{2-[1-(3-phenylpropyl)piperidin-4-yl]ethyl}benzimidazole] | 5.52 |
| CC(Cn1ccnc1)C1CCN(CCCc2ccccc2)CC1 (stereo not shown) [Example 113, 4-[2-(Imidazol-1-yl)-1-methylethyl]-1-(3-phenylpropyl)piperidine] | 6.52 |
| c1ccc(CCCN2CCC(CCn3cnc4ccccc43)CC2)cc1 [Example 114, 1-{2-[1-(3-Phenylpropyl)piperidin-4-yl]-ethyl}benzimidazole] | 5.38 |
| Cc1nc(Cl)c(Cl)n1CCC1CCN(CCCc2ccccc2)CC1 [Example 115, 4-[2-(4,5-Dichloro-2-methylimidazol-1-yl)ethyl]-1-(3-phenylpropyl)piperidine] | 5.92 |
| Cc1ncn(CCC2CCN(CCCc3ccccc3)CC2)c1C [Example 116, 4-[2-(4,5-Dimethylimidazol-1-yl)ethyl]-1-(3-phenylpropyl)piperidine] | 5.70 |
| Cc1nccn1CCC1CCN(CCCc2ccccc2)CC1 [Example 117, 4-[2-(2-Methylimidazol-1-yl)ethyl]-1-(3-phenylpropyl)piperidine] | 6.70 |
| Cc1ccc(CCCN2CCC(CCn3ccnc3)CC2)cc1 [Example 122, 4-[2-(Imidazol-1-yl)ethyl]-1-[3-(4-methylphenyl)propyl]piperidine] | 5.55 |
| Clc1ccc(CCCN2CCC(CCn3ccnc3)CC2)cc1 [Example 123, 1-[3-(4-Chlorophenyl)propyl]-4-[2-(imidazol-1-yl)ethyl]piperidine] | 6.15 |
| CSc1ccc(CCCN2CCC(CCn3ccnc3)CC2)cc1 [Example 127, 4-[2-(Imidazol-1-yl)ethyl]-1-[3-(4-methylthiophenyl)propyl]piperidine] | 5.72 |
| c1ccc(CCN2CCC(CCn3ccnc3)CC2)cc1 [Example 128, 4-[2-(Imidazol-1-yl)ethyl]-1-phenethylpiperidine] | 5.70 |
| c1ccc(CCCCN2CCC(CCn3ccnc3)CC2)cc1 [Example 129, 4-[2-(Imidazol-1-yl)ethyl]-1-(4-phenylbutyl)piperidine] | 5.68 |

Each compound was assayed on paw oedema (assay: Carrageenan-induced rat paw oedema test (Test E)). Details: oral dosing at 100 mg/kg; active = 20% or greater inhibition of paw oedema in at least two out of three tests.
Assay type: in vivo, rats
Method: Female rats, weight range 125-150 g were fasted overnight. One of the hind legs of each animal was marked with a line at the connection between the cuboid/navicular and calcaneus/talus bones. Groups of six rats were orally dosed at 10 ml/kg, in random order, with a given dose of the test compound given as a solution or suspension in 10% (w/v) aqueous acacia solution. One hour after dosing, 0.1 ml of 1% (w/v) sterile carrageenan λ in normal saline was injected deeply into the plantar surface of the marked hind foot of each rat. The volume of the foot (up to the marked line) was measured immediately after injection using duplicate water displacement readings. Three hours after injection the foot volume was measured again and the percentage increase in foot volume relative to the initial reading was calculated. The increase in foot volume (i.e. the degree of oedema) in drug treated animals when compared with that in the drug untreated control gave the degree of inhibition of paw oedema by the drug. […] Statistical significance was assessed using the Student's t test for single dose studies and Dunnett's test for multiple dose studies. More advantageous compounds were active in both Tests D and E.

| Compound | deemed to be active in Test E |
| --- | --- |
| c1ccc(OCCN2CCC(CCn3ccnc3)CC2)cc1 [Example 87, 4-[2-(Imidazol-1-yl)ethyl]-1-(2-phenoxyethyl)piperidine] | active |
| CC(c1ccc(Cl)cc1)N1CCC(CCn2ccnc2)CC1 (stereo not shown) [Example 93, 1-[1-(4-chlorophenyl)ethyl]-4-[2-(imidazol-1-yl)-ethyl]piperidine] | active |
| Cl.Cl.c1ccc(CCCN2CCC(CCn3ccnc3)CC2)cc1 [Example 98, 4-[2-(imidazol-1-yl)ethyl]-1-(3-phenylpropyl)piperidine dihydrochloride] | active |
